The values below come from BindingDB's records for doi:10.7270/Q2RB7351 (Technical University of Gdansk, 1997).

The term IC50 denotes the point on the concentration scale where inhibition reaches its midpoint. A high value points to a need for much substance. What is called Ki is the dissociation constant of the complex between target and ligand, obtained from inhibition or displacement.

Glutamine--fructose-6-phosphate aminotransferase [isomerizing], sequence (P53704 whole entry): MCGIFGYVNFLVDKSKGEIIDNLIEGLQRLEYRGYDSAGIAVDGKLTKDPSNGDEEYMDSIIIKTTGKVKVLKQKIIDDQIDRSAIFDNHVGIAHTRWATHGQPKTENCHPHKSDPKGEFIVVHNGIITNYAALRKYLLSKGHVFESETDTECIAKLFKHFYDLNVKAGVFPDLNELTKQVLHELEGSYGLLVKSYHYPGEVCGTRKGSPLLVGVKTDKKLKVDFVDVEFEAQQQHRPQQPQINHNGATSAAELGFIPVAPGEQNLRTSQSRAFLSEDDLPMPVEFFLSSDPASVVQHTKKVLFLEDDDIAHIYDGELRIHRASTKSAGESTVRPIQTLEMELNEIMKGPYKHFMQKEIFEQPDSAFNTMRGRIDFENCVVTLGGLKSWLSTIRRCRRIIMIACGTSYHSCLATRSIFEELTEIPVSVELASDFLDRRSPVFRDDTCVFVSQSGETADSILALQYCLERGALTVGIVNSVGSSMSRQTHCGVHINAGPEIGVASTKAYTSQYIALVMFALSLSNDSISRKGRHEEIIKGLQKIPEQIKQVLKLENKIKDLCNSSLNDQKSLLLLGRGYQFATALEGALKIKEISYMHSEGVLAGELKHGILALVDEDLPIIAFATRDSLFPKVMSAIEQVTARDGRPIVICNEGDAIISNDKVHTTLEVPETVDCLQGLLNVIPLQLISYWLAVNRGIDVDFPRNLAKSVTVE

This experiment deals with Glutamine--fructose-6-phosphate aminotransferase [isomerizing] (Candida albicans (strain SC5314 / ATCC MYA-2876), UniProt P53704). Description: Enzyme Assay. To be noted: pH 6.85. The text has this:
Two assays of GlcN-6-P synthase activity were used 1)determination of GlcN-6_P formation by the modified Elson-Morgan procedure and 2) continuous quantitation of glutamate in a coupled assay with glutamate dehydrogenase in the presence of acetylpyridine adenine dinucleotide.
On to `N[C@@H](CCP(=O)(O)O)C(=O)O`, for which the IC50 was found to be 26 mM and the Ki is 12 mM.

`COC(=O)C(N)CCS(C)(=O)=O` (racemic) [GlcN-6-P synthase inhibitor, 11 (racemic mixture)] gave an IC50 greater than 50 mM.

On to `COC(=O)C(N)CNS(C)(=O)=O` (racemic) [GlcN-6-P synthase inhibitor, 12 (racemic mixture)], for which the IC50 is greater than 50 mM.

For `COC(=O)C(N)CCS(N)(=O)=O` (racemic) [GlcN-6-P synthase inhibitor, 14 (racemic mixture)], half-maximal inhibition (IC50) required 5.5 mM and the Ki amounted to 2.8 mM.

Molecule `CCN(CC)S(=O)(=O)CCC(N)C(=O)OC` (racemic) [GlcN-6-P synthase inhibitor, 15 (racemic mixture)] had a half-inhibitory concentration (IC50) of 1.6 mM and a Ki of 0.6 mM.

`COC(=O)C(N)CCP(=O)(OC)OC` [GlcN-6-P synthase inhibitor, 2 (racemic mixture)] came in with a half-maximal inhibitory concentration (IC50) greater than 50 mM.

As to `COP(=O)(CCC(N)C(=O)O)OC` [GlcN-6-P synthase inhibitor, 3 (racemic mixture)], the IC50 is greater than 50 mM.

In the case of `COC(=O)C(N)CCP(=O)(O)OC` [GlcN-6-P synthase inhibitor, 4 (racemic mixture)], the IC50 stood at 2.6 mM and the affinity, expressed as Ki, was 1.2 mM.

`CO[P@@](=O)(O)CC[C@H](N)C(=O)O` [GlcN-6-P synthase inhibitor, 5 (racemic mixture)]: half-maximal inhibition (IC50) was put at 2 mM and affinity was put at a Ki of 0.9 mM.

`COC(=O)C(N)CCP(N)(=O)OC` [GlcN-6-P synthase inhibitor, 6 (racemic mixture)] showed an IC50 of 25 mM and a Ki of 11 mM.

`CCNP(=O)(CCC(N)C(=O)OC)OC` [GlcN-6-P synthase inhibitor, 7 (racemic mixture)] came in with an IC50 of 7.8 mM and a Ki of 4.4 mM.

The molecule `COC(=O)C(N)CCP(=O)(OC)N(C)C` [GlcN-6-P synthase inhibitor, 8 (racemic mixture)] yielded an IC50 of 4.4 mM and a Ki of 1.3 mM.

`CCN(CC)P(=O)(CCC(N)C(=O)OC)OC` [GlcN-6-P synthase inhibitor, 9 (racemic mixture)]: the half-maximal inhibitory concentration (IC50) was 3.6 mM and the Ki was 0.94 mM.

Take `COC(=O)C(N)CCS(C)(=N)=O` [GlcN-6-P synthase inhibitor, 13 (racemic mixture)]: the IC50 is 2.8 mM and the Ki was found to be 1.5 mM.
